Reference: ChEMBL document CHEMBL1201862, “PubChem BioAssay data set” (2004)
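Five compound concentrations were applied to cells in 96-well plates for 48 hours; endpoints were derived by simple linear interpolation of the resulting dose-response curve. Here, GI50 denotes the concentration required for 50% inhibition of growth.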 The source made the active and inactive calls. No stated cut-off is given here; in the data, active = GI50 up to about 1.1 µM and inactive = higher.

Columns and labels:
Experiment in all cases: NCI-60 cell line screen, 48 h
A498 = tested on: A498
U-251 = tested on: U-251
SK-MEL-28 = tested on: SK-MEL-28
MOLT-4 = tested on: MOLT-4
NCI-H226 = tested on: NCI-H226
SF-295 = tested on: SF-295
A549 = tested on: A549
CCRF-CEM = tested on: CCRF-CEM
SK-OV-3 = tested on: SK-OV-3
TK-10 = tested on: TK-10
CAKI-1 = tested on: CAKI-1
M14 = tested on: M14
HOP-92 = tested on: HOP-92
OVCAR-3 = tested on: OVCAR-3
NCI-H23 = tested on: NCI-H23
UACC-62 = tested on: UACC-62
HOP-62 = tested on: HOP-62
DU-145 = tested on: DU-145
Hs-578T = tested on: Hs-578T

Row | SMILES | GI50 (A498) | GI50 (U-251) | GI50 (SK-MEL-28) | GI50 (MOLT-4) | GI50 (NCI-H226) | GI50 (SF-295) | GI50 (A549) | GI50 (CCRF-CEM) | GI50 (SK-OV-3) | GI50 (TK-10) | GI50 (CAKI-1) | GI50 (M14) | GI50 (HOP-92) | GI50 (OVCAR-3) | GI50 (NCI-H23) | GI50 (UACC-62) | GI50 (HOP-62) | GI50 (DU-145) | GI50 (Hs-578T)
1 | Cc1ccc2c(c1CCCC(C)(C)O)C(=O)C(O)=C(C(C)C)C2=O | > 100 µM (inactive) | 53.1 µM (inactive) | > 100 µM (inactive) | 60.1 µM (inactive) | > 100 µM (inactive) | 81.7 µM (inactive) | 50.6 µM (inactive) | 32.2 µM (inactive) | > 100 µM (inactive) | > 100 µM (inactive) | > 100 µM (inactive) | > 100 µM (inactive) | > 100 µM (inactive) | 66.7 µM (inactive) | 59.3 µM (inactive) | – | – | – | –
2 | CC1(c2ccc(Cl)cc2)C2C(=O)NC(=O)C1C(=O)NC2=O (stereo not drawn) | > 100 µM (inactive) | – | > 100 µM (inactive) | > 100 µM (inactive) | – | > 100 µM (inactive) | > 100 µM (inactive) | > 100 µM (inactive) | > 100 µM (inactive) | > 100 µM (inactive) | > 100 µM (inactive) | > 100 µM (inactive) | > 100 µM (inactive) | > 100 µM (inactive) | > 100 µM (inactive) | > 100 µM (inactive) | > 100 µM (inactive) | – | –
3 | O=C(Nc1ccccc1)C(=O)C(C(=O)c1ccccc1F)C1OC(=O)c2ccccc21 (stereo not drawn) | 89.3 µM (inactive) | 22.9 µM (inactive) | 40.6 µM (inactive) | 28.4 µM (inactive) | 25.1 µM (inactive) | 47.1 µM (inactive) | 37.8 µM (inactive) | 29.5 µM (inactive) | 49 µM (inactive) | 69.2 µM (inactive) | 55.6 µM (inactive) | 44 µM (inactive) | > 100 µM (inactive) | – | 47.3 µM (inactive) | 23.5 µM (inactive) | 42.8 µM (inactive) | – | –
4 | CN(CC(=O)O)c1ncc2c(n1)-c1ccccc1SC2 | > 100 µM (inactive) | > 100 µM (inactive) | > 100 µM (inactive) | > 100 µM (inactive) | – | > 100 µM (inactive) | > 100 µM (inactive) | > 100 µM (inactive) | – | > 100 µM (inactive) | > 100 µM (inactive) | > 100 µM (inactive) | > 100 µM (inactive) | – | > 100 µM (inactive) | > 100 µM (inactive) | – | > 100 µM (inactive) | > 100 µM (inactive)
5 | CC(C)=CC(=O)OC1C2C(C)C(=O)OC2C(O)C(C)C2C=CC(=O)C21C (stereo not drawn) | 2.05 µM (inactive) | 4.06 µM (inactive) | 1.34 µM (inactive) | 1.23 µM (inactive) | 5.22 µM (inactive) | 6.14 µM (inactive) | 8.65 µM (inactive) | 0.802 µM (active) | 7.23 µM (inactive) | – | 3.24 µM (inactive) | – | 4.09 µM (inactive) | 2.75 µM (inactive) | 2.71 µM (inactive) | 1.47 µM (inactive) | 8.02 µM (inactive) | – | –
6 | CC(C)CCCCCCCCCCCCC(=O)NCC(=O)NC1C(C)OC(Nc2ncnc3c2ncn3C)C(O)C1O (stereo not drawn) | 4.15 µM (inactive) | 1.21 µM (inactive) | > 100 µM (inactive) | > 100 µM (inactive) | 2.16 µM (inactive) | 6.4 µM (inactive) | 8.28 µM (inactive) | > 100 µM (inactive) | 3.1 µM (inactive) | – | 0.805 µM (active) | – | 2.41 µM (inactive) | 3.52 µM (inactive) | 9.42 µM (inactive) | 3.18 µM (inactive) | 2.21 µM (inactive) | – | –
7 | COc1ccc(/C(Cl)=C(\CN(C)C)c2ccc(OC)c(OC)c2)cc1OC.[B] | 33.9 µM (inactive) | 8.61 µM (inactive) | – | > 100 µM (inactive) | > 100 µM (inactive) | 12.7 µM (inactive) | > 100 µM (inactive) | > 100 µM (inactive) | 14.2 µM (inactive) | 13.7 µM (inactive) | > 100 µM (inactive) | > 100 µM (inactive) | 2.22 µM (inactive) | – | 95.1 µM (inactive) | 3.94 µM (inactive) | 24.3 µM (inactive) | – | –
8 | CN1OC(=O)N(C)C1c1ccccc1 (stereo not drawn) | > 100 µM (inactive) | > 100 µM (inactive) | > 100 µM (inactive) | > 100 µM (inactive) | > 100 µM (inactive) | > 100 µM (inactive) | > 100 µM (inactive) | > 100 µM (inactive) | > 100 µM (inactive) | – | – | – | > 100 µM (inactive) | > 100 µM (inactive) | > 100 µM (inactive) | > 100 µM (inactive) | > 100 µM (inactive) | – | –
9 | OC(c1nc2ccccc2s1)(C(F)(F)F)C(F)(F)F | > 100 µM (inactive) | > 100 µM (inactive) | > 100 µM (inactive) | > 100 µM (inactive) | > 100 µM (inactive) | > 100 µM (inactive) | > 100 µM (inactive) | > 100 µM (inactive) | > 100 µM (inactive) | > 100 µM (inactive) | > 100 µM (inactive) | > 100 µM (inactive) | – | > 100 µM (inactive) | > 100 µM (inactive) | > 100 µM (inactive) | > 100 µM (inactive) | > 100 µM (inactive) | > 100 µM (inactive)
